The record followed here is ChEMBL document CHEMBL3763068, “Recent developments of 2-aminothiazoles in medicinal chemistry” (Eur J Med Chem, 2016).

SMILES strings stand for the structures. Some results are limits rather than exact numbers.

Data set [1] concerns Human immunodeficiency virus 1. As to the kind of experiment: Antiviral activity against HIV1 3B coinfected with HTLV in human PBMC assessed as inhibition of viral p24 antigen production after 7 days by ELISA. The class given is functional, organism-based. The settings on record: Human immunodeficiency virus 1, 3B, 168 h. For orientation: In an ELISA, binding on a coated surface is turned into a signal by an enzyme label.

The nature of data set [2]: Selectivity index, ratio of CC50 for human PBMC to IC50 for HIV1 3B. Type of data set: functional.
A short description of data set [3]: Drug uptake in po dosed mouse brain measured after 3 days. The note with it: read-out: Drug uptake. Type of data set: ADME, organism-based.
Data set [4] in a line: Antiprion activity against […] RML PrPSc infected in mouse N2A cells after 6 days by ELISA. The class given is cell-based. The note with it: 144 h.
Data set [5] deals with High affinity nerve growth factor receptor (Homo sapiens, UniProt P04629). As to the kind of experiment: Inhibition of human recombinant N-terminal His6-tagged TRKA cytoplasmic domain (residues 440).
The nature of data set [6]: Cytotoxicity against human Hep3B cells assessed as growth inhibition after 48 hrs by MTT assay. Type of data set: functional, cell-based, Hep 3B2.

Chain of High affinity nerve growth factor receptor (P04629 whole entry, the tested form may be a part): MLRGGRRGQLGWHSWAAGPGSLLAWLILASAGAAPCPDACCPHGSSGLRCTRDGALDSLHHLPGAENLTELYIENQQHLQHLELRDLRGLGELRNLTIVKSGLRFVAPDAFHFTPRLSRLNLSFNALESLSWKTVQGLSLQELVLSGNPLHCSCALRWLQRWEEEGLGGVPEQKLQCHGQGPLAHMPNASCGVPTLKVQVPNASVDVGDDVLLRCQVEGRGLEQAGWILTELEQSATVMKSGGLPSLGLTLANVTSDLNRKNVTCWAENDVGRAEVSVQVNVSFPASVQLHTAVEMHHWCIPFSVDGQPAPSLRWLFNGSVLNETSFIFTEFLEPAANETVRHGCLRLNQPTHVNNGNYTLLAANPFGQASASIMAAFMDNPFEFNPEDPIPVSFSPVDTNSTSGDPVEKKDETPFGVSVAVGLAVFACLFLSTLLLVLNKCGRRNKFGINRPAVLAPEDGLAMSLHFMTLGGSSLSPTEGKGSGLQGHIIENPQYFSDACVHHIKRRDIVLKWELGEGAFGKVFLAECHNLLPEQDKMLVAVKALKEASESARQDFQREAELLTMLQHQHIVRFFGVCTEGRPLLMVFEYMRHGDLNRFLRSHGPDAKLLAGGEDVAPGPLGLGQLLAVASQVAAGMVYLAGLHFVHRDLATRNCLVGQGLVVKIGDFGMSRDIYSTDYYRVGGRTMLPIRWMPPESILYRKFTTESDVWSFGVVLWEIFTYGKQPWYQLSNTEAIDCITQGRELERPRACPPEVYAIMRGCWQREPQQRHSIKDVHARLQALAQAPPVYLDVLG

As usually defined, the IC50 is the concentration that gives 50% inhibition. Turning to `S=C(NCc1ccco1)Nc1nccs1`, in data set [1], the half-inhibitory concentration (IC50) is below 1 nM. For the same compound, in data set [2], the “Ratio CC50/IC50” value is above 100000.
For orientation: EC50 means the concentration needed to bring the measured effect to its halfway point. The low end stands for greater potency, the high end for weaker potency. For `Cc1ccc(Nc2nc(-c3cc(-c4ccccc4)no3)cs2)nc1`, the concentration at 72 h in data set [3] was 25 µM. The same compound gave a half-maximal effective concentration (EC50) in data set [4] of 940 nM.
On to `S=C(NCCOc1ccccc1)Nc1nccs1`, for which the half-maximal inhibitory concentration (IC50) in data set [1] is below 1 nM. Moreover, in data set [2], the “Ratio CC50/IC50” value is given as above 100000.
`O=C(CCc1ccco1)Nc1nc(-c2ccccc2)cs1`: the IC50 in data set [5] was 13 nM; in data set [6], 40 nM.
